Measured values as given in patent EP0400330A1, “Oxidation hair dyes” (Wella Aktiengesellschaft, priority 1989, dated 1990).

Tests used:
[1] = tested on: Salmonella typhimurium-Stämmen TA97, TA98 und TA100; assay: Ames test of dyed hair strands; format: cell-based; set-up: key: +: mutagen; (+): schwach mutagen; -: nicht mutagen; details: hair dyed 30 Minuten at 40 Grad Celsius, in Anwesenheit von S9-Mix
Source text: Versuchsbedingungen: Haarsträhnchen aus 30-50 Haaren werden mit einem Mittel nach Beispiel 1, bei dem die Kupplersubstanz jeweils im äquimolaren Verhältnis zur Entwicklersubstanz enthalten war, getränkt. Die Strähnen wurden anschließend 30 Minuten lang bei 40 Grad Celsius im Klimaschrank aufbewahrt, sodann gründlich mit Wasser gespült und schließlich getrocknet. Die so gefärbten Haar wurden nun im 2,5 cm lange Stücke geschnitten und nach der Methodik von B.N. Ames an Salmonella typhimurium-Stämmen TA97, TA98 und TA100 in Anwesenheit von S9-Mix geprüft.

[2] = tested on: Salmonella typhimurium; assay: Ames test of hair dye solutions under oxidative conditions; details: hair dye solution containing the developer substance, unter oxidativen Bedingungen
[3] = Sister-Chromatide-Exchange-Test (SCE-Test); format: cell-based
Source text: (§1) Der große und überraschende technische Fortschritt, der bei der Verwendung von 2-(2,5-Diaminophenyl)ethanol mit den vorstehend genannten Kupplersubstanzen erzielt werden kann, liegt vielmehr in den physiologischen Eigenschaften begründet.

[4] = tested on: Mouse Lymphoma; assay: Mouse Lymphoma Test (point mutation in vitro); format: cell-based; details: Punktmutation in vitro
Source text: as §1

[5] = tested on: CHO-Zellen; assay: Chromosome aberration test in vitro (CA-Test); format: cell-based
Source text: as §1

[6] = tested on: Salmonella typhimurium; assay: Ames mutagenicity test of the developer substance; format: cell-based
Source text: as §1

[7] = Mutagenicity test battery (Ames, CA-Test, Mouse Lymphoma Test, SCE-Test), individual test not specified; format: cell-based; details: in some of the tests Ames, not said which
Source text: as §1

[8] = Sensitising property (test not described)
Source text: Das 2-(2,5-Diaminophenyl)ethanol wird seit einiger Zeit als Bestandteil von Oxidationshaarfärbemitteln in der Patentliteratur erwähnt. Als möglicher Bestandteil von Oxidationshaarfärbemitteln ist es zum Beispiel in der eigenen europäischen Offenlegungsschrift 0 166 155 sowie in den eigenen deutschen Offenlegungsschriften 3 625 916, 3 627 398 und 3 706 565 sowie auch in der DE-OS 3 545 371 aufgeführt. Ferner fällt das 2-(2,5-Diaminophenyl)ethanol unter eine allgemeine Formel für 1-Hydroxyalkyl-2,5-diaminobenzolverbindungen, welche als Entwicklersubstanzen für Oxidationshaarfärbemittel in der eigenen europäischen Offenlegungsschrift 0 007 537 empfohlen werden. Die dort mehrfach konkret genannte Verbindung 1-Hydroxymethyl-2,5-diaminobenzol (2,5Diaminobenzylalkohol) hat sich jedoch als sensibilisierend erwiesen. Die ausgezeichnete Eignung der Entwicklersubstanz 2-(2,5-Diaminophenyl)-ethanol in Kombination mit den vorstehend genannten Kupplersubstanzen zur Lösung der gestellten Aufgabe wurde bisher nicht erkannt. Dementsprechend sind die erfindungsgemäßen EntwicklersubstanzKupplersubstanz-Kombinationen in keiner dieser Druckschriften beschrieben.
Die konkrete Darstellung des 2-(2,5-Diaminophenyl)ethanols ist bisher ebenfalls weder beschrieben noch hat diese Entwicklersubstanz Eingang in die Haarfärbepraxis gefunden. […]

[9] = Kupplersubstanz 2-Methylresorcin, äquimolar to the developer
[10] = Kupplersubstanz 3,4-Methylendioxyphenol, äquimolar to the developer
[11] = Kupplersubstanz 3-Aminophenol, äquimolar to the developer
[12] = Kupplersubstanz Resorcin, äquimolar to the developer

Row | Structure (SMILES) | Amesteste von gefärbten Haarsträhnen [1, 9] | Amesteste von gefärbten Haarsträhnen [1, 10] | Amesteste von gefärbten Haarsträhnen [1, 11] | Amesteste von gefärbten Haarsträhnen [1, 12] | Amesteste von gefärbten Haarsträhnen ([1]; ohne Kupplersubstanz) | mutagene Wirkung von Haarfärbelösungen im Amestest [2] | Mutagenität im Sister-Chromatide-Exchange-Test (SCE-Test) [3] | Mutagenität im Mouse Lymphoma Test [4] | Mutagenität im Chromosomenaberrationstest an CHO-Zellen in vitro (CA-Test) [5] | Mutagenität im Mutagenitätstest nach Ames ([6]; in Abwesenheit von Wasserstoffperoxid) | Mutagenität im Mutagenitätstest nach Ames ([6]; in Anwesenheit von Wasserstoffperoxid) | Mutagenität in einigen dieser Teste [7] | sensibilisierende Eigenschaften [8]
1 | Nc1ccc(N)cc1 [p-Phenylendiamin, reference compound] | + | + | (+) | (+) | + | mutagenes Potential |  |  |  |  |  |  | 
2 | Nc1ccc(N)c(CCO)c1 [2-(2,5-Diaminophenyl)ethanol] | - | - | - | - | - | nicht mutagen | keinerlei Mutagenität | keinerlei Mutagenität | keinerlei Mutagenität | keinerlei Mutagenität | keinerlei Mutagenität |  | 
3 | Nc1ccc(N)c(CO)c1 [2,5-Diaminobenzylalkohol, 1-Hydroxymethyl-2,5-diaminobenzol] |  |  |  |  |  |  |  |  |  |  |  | mutagenes Potential | sensibilisierend
